pIC50: −log10 of the molar value. The source made the active and inactive calls.
Tests used:
[1] = NIH-3T3 fibroblast cytotoxicity, dose response, cytotoxicity control, cell-based, fluorescence, Alamar Blue, secondary assay (AID 2327); type: functional;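 note: NIH-3T3 mouse fibroblasts cultured with fluconazole at 8 µg/mL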
[2] = biological target: T1, Delta-type opioid receptor (Homo sapiens, UniProt P41143); assay: HTS Image-Based Screen for Antagonists of the DOR Receptor. [Related pubchem assays (depositor defined):AID1777, AID1785, AID1786, AID2133]; type: functional
Mu-type opioid receptor = Mu-type opioid receptor (Homo sapiens, UniProt P35372); assay: HTS Image-Based Screen for Agonists of the MOR Receptor. [Related pubchem assays (depositor defined):AID1777, AID1785, AID1786, AID2133]; type: functional;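 note: imaging of beta-arrestin GFP recruitment into spots after receptor activation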
[3] = biological target: T1, Delta-type opioid receptor; assay: HTS Image-Based Screen for Agonists of the DOR Receptor. [Related pubchem assays (depositor defined):AID1777, AID1786, AID2133]; type: functional
HeLa = assay: Cytotoxicity counterscreen assay for transcriptional activators of heat shock protein 70 (Hsp70). [Related pubchem assays: 1203, 1252 ]; type: functional; conditions: Homo sapiens;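 note: cells exposed to compound for 16 hours before readout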
[4] = C. albicans growth with fluconazole, confirmation, fluorescence, retest (AID 2467); type: functional, cell-based
[5] = biological target: G-protein coupled receptor 55 (Homo sapiens, UniProt Q9Y2T6); assay: GPR55 antagonists blocking LPI-driven arrestin recruitment, primary screen, imaging, U2OS, beta-arrestin-GFP, LPI agonist (AID 2013); type: functional;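 note: antagonist potency measured as reduced agonist-driven arrestin aggregation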
[6] = biological target: T2, Kappa-type opioid receptor (Homo sapiens, UniProt P41145); type: functional
Beta-galactosidase = Beta-galactosidase (Escherichia coli, UniProt Q8VNN2); type: functional
[7] = biological target: T2, Kappa-type opioid receptor; type: functional; remark: listed apart in the source
CHO = assay: cytotoxicity in TLR9-MyD88 CHO cells, dose response, cytotoxicity control for TLR9-MyD88 binding inhibitor project, cell-based, luminescence (AID 588339); type: functional, hamster; conditions: Cricetulus griseus;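 note: CHO cells stably coexpressing TLR9 and MyD88 fusions from primary screen; compound exposure lasted 48 hours before viability readout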
[8] = biological target: T3, Replicative DNA helicase DnaB (Mycobacterium tuberculosis, UniProt P9WMR3); assay: DnaB intein splicing inhibitors, dose response, biochemical, cell-free fluorescence (AID 449749); type: functional
T3 sequence (P9WMR3 whole entry): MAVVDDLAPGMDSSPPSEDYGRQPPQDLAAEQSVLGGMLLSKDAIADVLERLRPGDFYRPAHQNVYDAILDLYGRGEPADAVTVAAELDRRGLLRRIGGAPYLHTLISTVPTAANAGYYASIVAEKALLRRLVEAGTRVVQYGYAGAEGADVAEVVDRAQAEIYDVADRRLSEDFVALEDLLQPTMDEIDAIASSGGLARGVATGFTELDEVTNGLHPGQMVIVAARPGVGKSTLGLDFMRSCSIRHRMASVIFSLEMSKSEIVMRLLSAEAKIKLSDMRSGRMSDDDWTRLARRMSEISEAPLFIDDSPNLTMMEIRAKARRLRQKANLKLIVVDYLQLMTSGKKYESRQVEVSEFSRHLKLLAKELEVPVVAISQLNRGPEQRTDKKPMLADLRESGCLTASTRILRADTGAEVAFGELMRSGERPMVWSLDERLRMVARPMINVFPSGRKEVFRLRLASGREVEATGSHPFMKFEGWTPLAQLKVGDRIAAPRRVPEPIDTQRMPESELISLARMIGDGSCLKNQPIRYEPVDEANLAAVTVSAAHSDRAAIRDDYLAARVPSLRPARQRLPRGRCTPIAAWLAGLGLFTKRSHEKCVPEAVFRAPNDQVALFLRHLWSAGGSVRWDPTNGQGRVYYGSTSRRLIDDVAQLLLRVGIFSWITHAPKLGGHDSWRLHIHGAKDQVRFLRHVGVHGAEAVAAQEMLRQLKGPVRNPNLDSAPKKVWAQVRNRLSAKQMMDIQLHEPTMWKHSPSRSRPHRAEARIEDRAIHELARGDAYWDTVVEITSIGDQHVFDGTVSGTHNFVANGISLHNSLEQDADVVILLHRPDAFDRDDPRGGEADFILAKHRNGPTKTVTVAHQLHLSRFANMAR

Protein RecA = biological target: T4, Protein RecA (Mycobacterium tuberculosis, UniProt P9WHJ3); assay: Fluorescence Cell-Free Homogeneous Dose Retest to Identify Inhibitors of RecA-Intein Splicing Activity. [Related pubchem assays (depositor defined):AID2097, AID2223, AID489010, AID492950]; type: functional
T4 sequence (P9WHJ3 whole entry): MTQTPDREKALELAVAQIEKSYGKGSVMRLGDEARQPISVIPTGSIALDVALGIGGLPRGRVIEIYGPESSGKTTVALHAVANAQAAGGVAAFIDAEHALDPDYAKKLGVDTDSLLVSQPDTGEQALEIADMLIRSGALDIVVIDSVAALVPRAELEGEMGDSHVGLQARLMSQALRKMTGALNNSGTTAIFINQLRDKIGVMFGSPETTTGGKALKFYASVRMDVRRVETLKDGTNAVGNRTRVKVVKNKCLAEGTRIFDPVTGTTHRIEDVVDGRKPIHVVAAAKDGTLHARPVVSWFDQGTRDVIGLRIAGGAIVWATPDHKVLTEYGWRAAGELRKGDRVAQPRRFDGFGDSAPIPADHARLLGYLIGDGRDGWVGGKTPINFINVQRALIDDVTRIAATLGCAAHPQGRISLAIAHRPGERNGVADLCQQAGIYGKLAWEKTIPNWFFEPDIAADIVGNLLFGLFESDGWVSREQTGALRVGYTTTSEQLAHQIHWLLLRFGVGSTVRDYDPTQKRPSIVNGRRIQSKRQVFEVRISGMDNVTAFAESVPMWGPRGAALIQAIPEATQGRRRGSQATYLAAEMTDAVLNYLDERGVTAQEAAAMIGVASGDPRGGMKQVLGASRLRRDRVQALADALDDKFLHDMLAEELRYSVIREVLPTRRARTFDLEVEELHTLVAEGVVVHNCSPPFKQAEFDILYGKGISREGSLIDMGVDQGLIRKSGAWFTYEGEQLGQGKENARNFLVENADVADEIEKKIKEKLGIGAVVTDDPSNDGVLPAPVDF

Beta Lactamase = Beta Lactamase (Pseudomonas aeruginosa, UniProt Q932Y6); assay: beta-lactamase reporter inhibitor potency, dose response, artefact control for TLR9-MyD88 binding inhibitor project, BLA reporter cells, FRET fluorescence (AID 588341); type: cell-based;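 note: cell based assay in CHO-K1 cells stably expressing beta-lactamase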
Cysteine protease ATG4B = Cysteine protease ATG4B (Homo sapiens, UniProt Q9Y4P1); type: functional;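 note: Fluorescence-based dose-response confirmation assay measuring inhibition of ATG4B activity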
Phospholipase A2 = Phospholipase A2 (Homo sapiens, UniProt P04054); type: functional;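 note: confirmatory dose-response counterscreen on phospholipase A2, testing hits that came from an ultra-high-throughput screen for ATG4B inhibitors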
[9] = biological target: T5, Endoribonuclease toxin MazF (Escherichia coli K-12, UniProt P0AE70); assay: MazF endoribonuclease activators, SAR follow-up, biochemical, fluorescence, single-stranded RNA substrate (AID 588603); type: functional
T5 sequence (P0AE70 whole entry): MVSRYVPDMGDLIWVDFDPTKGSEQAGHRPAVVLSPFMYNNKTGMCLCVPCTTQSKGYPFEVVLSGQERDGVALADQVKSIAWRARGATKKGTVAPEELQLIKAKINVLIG

[10] = biological target: T5, Endoribonuclease toxin MazF; assay: MazF toxin RNase activators, dose response, biochemical, fluorescence, single-stranded RNA substrate, uHTS hits (AID 588481); type: functional
MEF = assay: SAR analysis of small molecule cytotoxicity of MazEF TA System activators in embryonic fibroblast (MEF) cells. [Related pubchem assays (depositor defined):AID504720, AID504743]; type: functional; conditions: Mus musculus
[11] = biological target: T5, Endoribonuclease toxin MazF; assay: SAR analysis of small molecule activators of the MazEF TA System via a fluorescence-based single-stranded RNase assay counterscreen. [Related pubchem assays (depositor defined):AID504720, AID504743]; type: functional
[12] = biological target: T5, Endoribonuclease toxin MazF; assay: fluorescent RNA oligo signal without MazF, dose response, counter-screen for MazEF activator project, biochemical, fluorescence, single-stranded RNase substrate (AID 588502); type: functional
DNA topoisomerase = DNA topoisomerase (Yersinia pestis, UniProt A0A2S9PM60); assay: Y. pestis Topo-I inhibitors, cleavage product readout, dose response, biochemical, cherry-pick (AID 588525)
DNA topoisomerase, sequence (A0A2S9PM60 whole entry): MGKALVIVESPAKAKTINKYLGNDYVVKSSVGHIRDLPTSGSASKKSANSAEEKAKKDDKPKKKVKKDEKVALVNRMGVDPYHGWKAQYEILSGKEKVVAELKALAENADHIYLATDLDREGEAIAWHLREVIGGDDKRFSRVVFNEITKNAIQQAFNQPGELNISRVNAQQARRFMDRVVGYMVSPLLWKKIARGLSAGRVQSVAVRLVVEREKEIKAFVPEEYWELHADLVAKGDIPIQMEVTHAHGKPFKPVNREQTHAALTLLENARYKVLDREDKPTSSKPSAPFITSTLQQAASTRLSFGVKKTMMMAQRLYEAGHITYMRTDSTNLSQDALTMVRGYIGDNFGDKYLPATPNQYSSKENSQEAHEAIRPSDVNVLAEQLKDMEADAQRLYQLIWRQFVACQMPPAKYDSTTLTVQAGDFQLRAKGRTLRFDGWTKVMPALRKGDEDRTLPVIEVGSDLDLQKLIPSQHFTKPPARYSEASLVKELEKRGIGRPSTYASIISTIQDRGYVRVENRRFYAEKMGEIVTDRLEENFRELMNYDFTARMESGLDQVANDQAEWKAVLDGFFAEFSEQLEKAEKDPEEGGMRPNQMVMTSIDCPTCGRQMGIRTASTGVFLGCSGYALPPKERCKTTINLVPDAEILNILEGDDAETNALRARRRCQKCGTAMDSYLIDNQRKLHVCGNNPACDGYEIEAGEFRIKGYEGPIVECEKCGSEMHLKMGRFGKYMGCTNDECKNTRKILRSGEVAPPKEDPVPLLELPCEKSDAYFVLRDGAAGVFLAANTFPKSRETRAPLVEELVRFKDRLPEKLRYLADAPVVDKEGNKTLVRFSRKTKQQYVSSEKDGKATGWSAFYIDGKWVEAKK

T1 sequence (P41143 whole entry): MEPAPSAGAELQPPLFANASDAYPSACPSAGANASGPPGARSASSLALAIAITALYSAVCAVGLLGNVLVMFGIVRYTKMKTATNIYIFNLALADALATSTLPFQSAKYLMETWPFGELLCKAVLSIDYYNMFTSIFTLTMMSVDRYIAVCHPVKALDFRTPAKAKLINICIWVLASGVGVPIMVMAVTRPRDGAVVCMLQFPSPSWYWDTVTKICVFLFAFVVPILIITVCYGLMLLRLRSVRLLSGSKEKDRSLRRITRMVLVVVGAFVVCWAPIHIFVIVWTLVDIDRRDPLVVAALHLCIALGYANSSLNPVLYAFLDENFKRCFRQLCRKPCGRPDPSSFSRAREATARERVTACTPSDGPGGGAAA
T2 sequence (P41145 whole entry): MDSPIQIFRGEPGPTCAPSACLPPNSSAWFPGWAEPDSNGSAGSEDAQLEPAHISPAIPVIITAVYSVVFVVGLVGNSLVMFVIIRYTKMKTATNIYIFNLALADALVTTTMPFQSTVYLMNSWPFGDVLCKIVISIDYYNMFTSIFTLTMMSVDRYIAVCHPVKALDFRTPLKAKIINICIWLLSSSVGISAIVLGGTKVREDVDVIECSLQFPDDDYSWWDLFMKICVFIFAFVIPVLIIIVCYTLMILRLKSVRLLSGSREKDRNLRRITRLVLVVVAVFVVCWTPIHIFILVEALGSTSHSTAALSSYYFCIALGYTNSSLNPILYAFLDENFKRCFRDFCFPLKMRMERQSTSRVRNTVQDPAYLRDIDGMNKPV
Mu-type opioid receptor, sequence (P35372 whole entry): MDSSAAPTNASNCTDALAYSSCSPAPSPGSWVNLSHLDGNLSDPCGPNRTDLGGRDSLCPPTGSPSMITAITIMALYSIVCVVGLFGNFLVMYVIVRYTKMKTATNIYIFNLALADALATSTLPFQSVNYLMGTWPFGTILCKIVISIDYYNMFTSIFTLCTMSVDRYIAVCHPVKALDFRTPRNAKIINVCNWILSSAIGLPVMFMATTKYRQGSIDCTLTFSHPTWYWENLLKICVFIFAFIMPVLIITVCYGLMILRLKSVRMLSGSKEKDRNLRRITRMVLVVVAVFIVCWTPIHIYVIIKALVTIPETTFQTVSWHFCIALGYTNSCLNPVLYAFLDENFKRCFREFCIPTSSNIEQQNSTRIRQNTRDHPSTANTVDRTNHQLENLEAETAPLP
G-protein coupled receptor 55, sequence (Q9Y2T6 whole entry): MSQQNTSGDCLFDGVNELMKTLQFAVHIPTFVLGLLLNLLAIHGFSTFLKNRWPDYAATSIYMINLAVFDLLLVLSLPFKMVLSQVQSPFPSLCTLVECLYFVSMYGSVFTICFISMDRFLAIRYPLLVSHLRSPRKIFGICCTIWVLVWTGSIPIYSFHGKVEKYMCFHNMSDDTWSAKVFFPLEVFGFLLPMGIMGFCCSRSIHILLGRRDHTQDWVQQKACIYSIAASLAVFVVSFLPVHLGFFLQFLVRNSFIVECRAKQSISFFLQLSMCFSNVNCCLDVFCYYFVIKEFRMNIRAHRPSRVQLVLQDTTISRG
Beta-galactosidase, sequence (Q8VNN2 whole entry): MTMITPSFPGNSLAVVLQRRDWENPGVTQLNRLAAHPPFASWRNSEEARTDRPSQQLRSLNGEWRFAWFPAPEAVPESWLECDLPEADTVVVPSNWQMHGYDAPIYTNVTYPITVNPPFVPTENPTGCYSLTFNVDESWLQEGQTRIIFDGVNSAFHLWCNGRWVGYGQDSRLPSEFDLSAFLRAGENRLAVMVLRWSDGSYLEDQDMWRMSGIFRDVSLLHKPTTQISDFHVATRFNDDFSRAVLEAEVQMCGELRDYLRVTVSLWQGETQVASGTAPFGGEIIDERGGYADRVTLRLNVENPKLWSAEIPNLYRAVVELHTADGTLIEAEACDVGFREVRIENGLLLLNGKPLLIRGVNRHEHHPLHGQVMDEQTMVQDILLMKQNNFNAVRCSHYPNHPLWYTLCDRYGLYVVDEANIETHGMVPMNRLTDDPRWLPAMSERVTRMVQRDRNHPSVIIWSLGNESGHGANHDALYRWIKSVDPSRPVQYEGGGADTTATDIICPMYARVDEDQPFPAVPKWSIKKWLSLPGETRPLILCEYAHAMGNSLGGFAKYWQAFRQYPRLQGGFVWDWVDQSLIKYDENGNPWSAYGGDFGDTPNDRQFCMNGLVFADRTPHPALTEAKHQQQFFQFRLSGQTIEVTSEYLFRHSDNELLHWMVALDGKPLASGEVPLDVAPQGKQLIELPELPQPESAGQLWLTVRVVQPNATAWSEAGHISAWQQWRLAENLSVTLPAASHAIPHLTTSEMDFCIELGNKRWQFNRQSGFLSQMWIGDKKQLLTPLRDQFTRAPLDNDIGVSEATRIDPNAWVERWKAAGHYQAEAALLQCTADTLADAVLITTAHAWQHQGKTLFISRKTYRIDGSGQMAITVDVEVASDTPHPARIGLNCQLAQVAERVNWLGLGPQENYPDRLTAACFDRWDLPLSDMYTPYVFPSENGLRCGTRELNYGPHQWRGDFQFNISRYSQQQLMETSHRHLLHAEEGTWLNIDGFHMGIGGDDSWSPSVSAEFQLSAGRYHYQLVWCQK
Beta Lactamase, sequence (Q932Y6 whole entry): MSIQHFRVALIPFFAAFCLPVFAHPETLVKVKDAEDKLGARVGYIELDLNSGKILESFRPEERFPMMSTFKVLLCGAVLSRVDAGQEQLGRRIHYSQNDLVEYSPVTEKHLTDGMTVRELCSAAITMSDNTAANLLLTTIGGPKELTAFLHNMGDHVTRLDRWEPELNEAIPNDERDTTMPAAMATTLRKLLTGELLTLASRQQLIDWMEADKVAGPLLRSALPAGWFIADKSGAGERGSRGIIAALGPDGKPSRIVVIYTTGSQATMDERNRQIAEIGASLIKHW
Phospholipase A2, sequence (P04054 whole entry): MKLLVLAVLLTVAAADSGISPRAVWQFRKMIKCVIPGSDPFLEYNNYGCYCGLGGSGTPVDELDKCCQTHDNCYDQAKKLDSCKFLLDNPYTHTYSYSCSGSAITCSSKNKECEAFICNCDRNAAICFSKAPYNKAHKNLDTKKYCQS
Cysteine protease ATG4B, sequence (Q9Y4P1 whole entry): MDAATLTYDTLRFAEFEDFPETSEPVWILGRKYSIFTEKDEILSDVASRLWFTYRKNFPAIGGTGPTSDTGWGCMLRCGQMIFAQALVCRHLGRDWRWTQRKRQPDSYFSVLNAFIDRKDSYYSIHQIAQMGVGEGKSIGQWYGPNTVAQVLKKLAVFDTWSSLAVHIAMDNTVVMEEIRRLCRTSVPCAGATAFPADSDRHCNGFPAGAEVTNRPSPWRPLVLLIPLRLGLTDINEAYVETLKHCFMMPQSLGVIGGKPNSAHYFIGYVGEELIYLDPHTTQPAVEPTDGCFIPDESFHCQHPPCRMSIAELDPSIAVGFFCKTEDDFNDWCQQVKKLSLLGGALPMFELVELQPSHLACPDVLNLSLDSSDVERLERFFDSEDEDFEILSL

CNc1cc(Cl)c2nonc2c1[N+](=O)[O-]
EC50 [1]: 4.78 µM (inconclusive)
IC50 [2]: 10.4 µM (inactive)
EC50 (Mu-type opioid receptor): > 32 µM (inactive)
EC50 [3]: > 32 µM (inactive)
CC50 (HeLa): > 1.22 µM (active)
EC50 [4]: 0.752 µM (active)
IC50 [5]: 1.11 µM (active)
IC50 [6]: 2.96 µM (active)
EC50 (Beta-galactosidase): > 31.5 µM (inactive)
pIC50 [7]: 5.07
IC50 (CHO): 1.68 µM (active)
AC50 [8]: 5.31 µM (active)
EC50 (Protein RecA): 1.77 µM (active)
IC50 (Beta Lactamase): 4.73 µM (active)

Cc1ccc(-n2c(SCC(=O)N/N=C/C=C/c3ccccc3[N+](=O)[O-])nc3ccccc3c2=O)cc1
IC50 (Cysteine protease ATG4B): 6.42 µM (active)
IC50 (Phospholipase A2): 2.53 µM (active)

CN1C(=O)C(C)(C)c2cc(S(=O)(=O)NCc3ccc(C(=O)NCc4ccco4)cc3)ccc21
EC50 [9]: 3.35 µM (active)
EC50 [10]: 7.01 µM (active)
CC50 (MEF): > 99 µM (inactive)
EC50 [11]: > 99 µM (inactive)
EC50 [12]: 29.2 µM (inactive)

Cc1c(C(=O)OCC(=O)N(CC(C)C)c2c(N)n(Cc3ccccc3)c(=O)[nH]c2=O)oc2ccccc12
AC50 (DNA topoisomerase): 9.46 µM (active)
